Where two headings read alike, the source gives them in different places.
How the values were obtained:
Type in all cases: biochemical
[1] = target: MELK (Homo sapiens (Human), UniProt Q14680); experiment: MELK p81-based kinase assay, dose-response (IC50/Ki); conditions: for IC50: 40 μM ATP
Method: MELK and its substrate, Bcl-G were both recombinantly expressed and purified for use in screening assays (See Methods). […] 10 nM MELK 340 and 10 μM Bcl-GL in kinase assay buffer (50 mM HEPES pH 7.5, 100 mM KCl, 0.1 mM EDTA, 0.1 mM EGTA, 10 mM MgCl2, 10 μg/mL BSA) with 10 mM DTT were added to either 10 μM or 1 μM inhibitor aliquoted into 96 well plates (final 1% DMSO). The mixture was incubated at room temperature for 30 minutes prior to initiation of the assay with 40 μM γ-^32P-ATP (100-1000 CPM/pmol). 40 μL aliquots were spotted onto a p81 96 well filter plate (Unifilter, Whatman), quenched, and washed with 75 mM O-phosphoric acid 8 times, followed by a final wash with acetone for drying. Wells were then filled with scintillation fluid, sealed, and quantified using a MicroBeta TriLux liquid scintillation counter (PerkinElmer). Each inhibitor plate was assayed in duplicate, with at least 4 wells without MELK to establish background and at least 4 wells without inhibitor as a negative control. All readings were corrected for background signal based on the average counts from the wells without enzyme. Percent inhibition, defined as [100−(CPM+inhibitor/average CPM of positive controls)*100], was determined first at 10 μM inhibitor. The top 50 inhibitors were then re-screened in duplicate at 1 μM.
At set time points (0.25, 0.5, 1, 1.5, and 2 min for assays containing 10 nM MELK and 1, 2, 4, 6, and 10 min for assays containing 1 nM MELK), 30 μL aliquots were taken from each reaction and spotted onto 2×2 cm squares of p81 paper. Papers were washed 4 times in 75 mM O-phosphoric acid and once in acetone. Labeled protein was quantified by its associated CPM determined on a Packard 1500 scintillation counter at a sigma value of 2. CPM were translated into nmol ^32P incorporated using Equation 1.
Rates in the presence of each concentration of inhibitor were determined by plotting nmol ^32P incorporated vs. time. These rates were normalized to rates obtained without inhibitor, and data were plotted in terms of fractional activity. In most cases, data were fit to Equation 2. If the IC50 approached the amount of enzyme used in the assay, data were re-fit to the equation for tight-binding inhibitors (the Morrison equation, […]). […] Data were transformed as discussed and fit to Equation 3.
IC50 values were used to estimate each inhibitor's Ki using the Cheng-Prusoff relationship for competitive inhibitors (Equation 4).

[2] = target: AMPK (Rattus norvegicus (Rat), UniProt P54645); experiment: Selectivity dose-response kinase assay, AMPK; conditions: 100 μM ATP
Chain of AMPK (Rattus norvegicus (Rat), UniProt P54645) (P54645 whole entry, looked up): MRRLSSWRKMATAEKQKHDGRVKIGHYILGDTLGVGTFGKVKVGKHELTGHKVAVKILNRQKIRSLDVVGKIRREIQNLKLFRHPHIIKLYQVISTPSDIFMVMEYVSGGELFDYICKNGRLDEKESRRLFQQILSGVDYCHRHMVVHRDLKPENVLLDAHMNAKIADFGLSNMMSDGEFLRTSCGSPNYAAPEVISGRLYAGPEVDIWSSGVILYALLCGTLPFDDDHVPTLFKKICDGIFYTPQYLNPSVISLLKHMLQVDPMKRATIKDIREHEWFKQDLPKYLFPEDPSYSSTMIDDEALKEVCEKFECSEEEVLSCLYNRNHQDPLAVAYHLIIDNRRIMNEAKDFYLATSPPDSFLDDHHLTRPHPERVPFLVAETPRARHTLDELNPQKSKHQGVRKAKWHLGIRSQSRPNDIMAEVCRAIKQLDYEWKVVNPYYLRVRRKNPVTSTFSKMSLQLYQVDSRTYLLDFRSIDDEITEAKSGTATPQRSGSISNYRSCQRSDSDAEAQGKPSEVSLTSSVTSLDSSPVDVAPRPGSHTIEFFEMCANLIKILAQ
Chain of AMPK (Rattus norvegicus (Rat), UniProt P54645) (P80386 whole entry partner, looked up): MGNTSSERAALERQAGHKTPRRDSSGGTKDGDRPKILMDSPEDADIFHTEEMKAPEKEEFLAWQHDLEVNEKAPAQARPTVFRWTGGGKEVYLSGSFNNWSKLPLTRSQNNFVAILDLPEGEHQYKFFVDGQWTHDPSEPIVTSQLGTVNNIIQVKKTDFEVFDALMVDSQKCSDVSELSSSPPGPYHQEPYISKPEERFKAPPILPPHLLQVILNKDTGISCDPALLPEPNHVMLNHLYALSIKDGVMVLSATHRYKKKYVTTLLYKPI
Chain of AMPK (Rattus norvegicus (Rat), UniProt P54645) (P80385 whole entry partner, looked up): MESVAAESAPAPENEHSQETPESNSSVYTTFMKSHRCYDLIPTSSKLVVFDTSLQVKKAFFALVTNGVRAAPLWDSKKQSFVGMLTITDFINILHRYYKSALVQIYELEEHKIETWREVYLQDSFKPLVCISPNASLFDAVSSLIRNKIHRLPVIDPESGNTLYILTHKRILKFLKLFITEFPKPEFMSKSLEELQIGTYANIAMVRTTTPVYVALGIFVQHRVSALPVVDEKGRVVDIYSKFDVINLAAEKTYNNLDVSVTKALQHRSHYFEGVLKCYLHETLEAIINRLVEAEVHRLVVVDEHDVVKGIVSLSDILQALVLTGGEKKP
Excerpt: (§1) CHK1 and NUAK1 were purchased from SignalChem (Vancouver, BC). The NUAK2, CHK, and SAMS peptides were purchased from BioSyn (Lewisville, Tex.). The sequence of CHK and NUAK2 peptides are described elsewhere (Sanchez Y, et al. Science (New York, N.Y.). 1997; 277(5331):1497-1501; Scott J W, et al. Sci Rep. 2015; 5:14436). ERK2, AMPK, CAMKK2, and Ets1 were produced in house as previously described (Waas W F, Dalby K N. The Journal of biological chemistry. 2002; 277(15):12532-12540; Neumann D, et al. Protein Expr Purif. 2003; 30(2):230-237; Waas W F, Dalby K N. Protein Expr Purif. 2001; 23(1):191-197). Apparent KM values for ATP under specific assay conditions were determined using respective experimental conditions in Table 8 with varied ATP (0-1.28 mM). All selectivity dose-response assays were performed in kinase assay buffer (see Inhibitor Library Screen) with 2 mM DTT and 100 μM γ-^32P-ATP with additional conditions listed in Table 8. IC50 and KM^ATP values were subsequently used to calculate Ki (Equation 4). Relative selectivity was determined by comparing Ki^Enzyme/Ki^MELK (termed φ in Table 7). […] Standard error from linear regression data was propagated internally in Prism and taken into account in nonlinear regression to determine IC50 or Ki.

[3] = system: AMPK; experiment: Selectivity dose-response kinase assay, AMPK
Excerpt: as §1

[4] = target: NUAK1 (Homo sapiens (Human), UniProt O60285); experiment: Selectivity dose-response kinase assay, NUAK1; conditions: for Ki: 100 μM ATP
Chain of NUAK1 (O60285 whole entry): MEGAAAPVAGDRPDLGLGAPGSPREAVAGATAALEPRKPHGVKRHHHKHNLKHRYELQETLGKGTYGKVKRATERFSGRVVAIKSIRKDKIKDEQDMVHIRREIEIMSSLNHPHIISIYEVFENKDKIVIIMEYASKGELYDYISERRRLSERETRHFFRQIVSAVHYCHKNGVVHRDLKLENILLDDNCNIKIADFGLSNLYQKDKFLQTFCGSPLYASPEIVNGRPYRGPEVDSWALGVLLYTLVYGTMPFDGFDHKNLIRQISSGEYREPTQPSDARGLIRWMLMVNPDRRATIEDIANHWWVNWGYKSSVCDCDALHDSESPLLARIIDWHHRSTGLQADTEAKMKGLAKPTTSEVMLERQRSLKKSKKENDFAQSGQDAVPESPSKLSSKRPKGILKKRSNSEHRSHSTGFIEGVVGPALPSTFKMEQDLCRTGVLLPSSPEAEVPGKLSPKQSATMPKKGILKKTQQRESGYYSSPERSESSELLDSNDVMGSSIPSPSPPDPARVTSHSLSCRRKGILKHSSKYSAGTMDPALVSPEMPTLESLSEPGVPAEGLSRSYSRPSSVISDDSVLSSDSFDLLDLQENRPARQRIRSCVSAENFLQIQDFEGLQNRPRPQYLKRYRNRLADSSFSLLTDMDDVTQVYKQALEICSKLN
Excerpt: as §1

[5] = target: CHK1 (Homo sapiens (Human), UniProt O14757); experiment: Selectivity dose-response kinase assay, CHK1; conditions: for Ki: 100 μM ATP
Chain of CHK1 (O14757 whole entry): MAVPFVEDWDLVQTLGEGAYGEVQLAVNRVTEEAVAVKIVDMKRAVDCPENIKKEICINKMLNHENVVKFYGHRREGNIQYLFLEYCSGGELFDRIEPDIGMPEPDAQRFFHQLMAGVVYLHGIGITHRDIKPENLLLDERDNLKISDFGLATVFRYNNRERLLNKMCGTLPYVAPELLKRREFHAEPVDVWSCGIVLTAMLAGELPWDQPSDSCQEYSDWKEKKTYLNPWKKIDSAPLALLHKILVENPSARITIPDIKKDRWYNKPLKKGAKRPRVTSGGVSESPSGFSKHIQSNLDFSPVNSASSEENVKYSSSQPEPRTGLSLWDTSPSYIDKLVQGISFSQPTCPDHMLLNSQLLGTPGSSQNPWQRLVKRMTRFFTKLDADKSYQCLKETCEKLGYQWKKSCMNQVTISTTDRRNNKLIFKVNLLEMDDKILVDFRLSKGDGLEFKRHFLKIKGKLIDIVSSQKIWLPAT
Excerpt: as §1

[6] = target: CAMKK2 (Homo sapiens (Human), UniProt Q96RR4); experiment: Selectivity dose-response kinase assay, CAMKK2; conditions: for Ki: 100 μM ATP
Chain of CAMKK2 (Q96RR4 whole entry, species assumed): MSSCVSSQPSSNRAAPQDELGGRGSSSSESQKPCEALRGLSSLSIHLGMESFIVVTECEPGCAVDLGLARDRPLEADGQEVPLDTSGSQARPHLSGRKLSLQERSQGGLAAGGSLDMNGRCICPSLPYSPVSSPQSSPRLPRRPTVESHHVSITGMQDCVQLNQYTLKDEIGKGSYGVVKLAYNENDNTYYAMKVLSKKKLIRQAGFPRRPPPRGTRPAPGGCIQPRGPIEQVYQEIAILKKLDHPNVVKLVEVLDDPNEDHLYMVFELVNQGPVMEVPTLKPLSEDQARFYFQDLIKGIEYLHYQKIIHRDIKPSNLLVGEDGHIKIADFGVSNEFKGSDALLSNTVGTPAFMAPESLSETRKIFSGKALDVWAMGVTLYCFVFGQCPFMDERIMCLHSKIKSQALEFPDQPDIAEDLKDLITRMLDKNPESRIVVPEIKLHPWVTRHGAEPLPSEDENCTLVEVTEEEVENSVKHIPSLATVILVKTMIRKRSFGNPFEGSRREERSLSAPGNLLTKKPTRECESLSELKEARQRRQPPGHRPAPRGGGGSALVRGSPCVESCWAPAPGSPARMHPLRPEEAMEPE
Excerpt: as §1

[7] = target: ERK2 (Rattus norvegicus (Rat), UniProt P63086); experiment: Selectivity dose-response kinase assay, ERK2
Chain of ERK2 (P63086 whole entry): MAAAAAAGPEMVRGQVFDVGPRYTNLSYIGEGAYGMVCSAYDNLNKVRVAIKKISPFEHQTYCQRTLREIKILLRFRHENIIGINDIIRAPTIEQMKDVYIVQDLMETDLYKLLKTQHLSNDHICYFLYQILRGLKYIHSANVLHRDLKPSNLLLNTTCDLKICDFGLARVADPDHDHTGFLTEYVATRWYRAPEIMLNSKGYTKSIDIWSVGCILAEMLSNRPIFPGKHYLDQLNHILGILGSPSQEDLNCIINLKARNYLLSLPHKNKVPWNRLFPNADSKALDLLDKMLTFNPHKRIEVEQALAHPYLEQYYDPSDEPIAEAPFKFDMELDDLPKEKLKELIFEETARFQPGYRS
Excerpt: as §1

[8] = Ki calculated using Equation 4, [ATP] = 40 μM, KM app (ATP) = 6 μM, read-out: Ki ± SE
[9] = indolinone derivatives, read-out: IC50
[10] = Ki calculated using Equation 4, [ATP] = 40 μM, KM app (ATP) = 6 μM
[11] = selectivity table, MELK, read-out: Ki
[12] = cross-inhibition of MELK by known kinase inhibitors, read-out: IC50 ± SE
[13] = fragment and intermediate potency (synthetic intermediates), read-out: Ki ± SD

Chain of MELK (Q14680 1-340): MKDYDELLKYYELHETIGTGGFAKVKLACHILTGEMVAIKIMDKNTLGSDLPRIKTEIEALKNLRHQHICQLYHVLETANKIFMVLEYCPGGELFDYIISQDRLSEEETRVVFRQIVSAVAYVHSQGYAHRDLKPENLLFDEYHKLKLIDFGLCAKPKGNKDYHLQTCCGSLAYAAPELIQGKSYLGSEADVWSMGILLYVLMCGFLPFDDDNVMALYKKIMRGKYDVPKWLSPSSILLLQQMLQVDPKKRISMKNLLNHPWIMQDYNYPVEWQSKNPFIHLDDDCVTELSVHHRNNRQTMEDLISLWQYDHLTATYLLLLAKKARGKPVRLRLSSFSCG

Question: How did the Ki [1, 8] turn out when `CNC(=O)c1ccc2c(c1)/C(=C(/Nc1ccc(N(C)C(=O)CN3CCN(C)CC3)cc1)c1ccccc1)C(=O)N2` [Compound 24, (Z)—N-Methyl-3-(((4-(N-methyl-2-(4-methylpiperazin-1-yl)acetamido)phenyl)amino)(phenyl)methylene)-2-oxoindoline-5-carboxamide] was run?
Answer: Its Ki is 2.3 nM.

Question: And the IC50 [1, 9]?
Answer: Its IC50 is 18 ± 3.8 nM.

Question: Which Ki [1, 8] does the source give for `CN1CCN(CC(=O)N(C)c2ccc(N/C(=C3\C(=O)Nc4cc(C(=O)O)ccc43)c3ccccc3)cc2)CC1` [Compound 20, (Z)-3-(((4-(N-Methyl-2-(4-methylpiperazin-1-yl)acetamido)phenyl)amino)(phenyl)methylene)-2-oxoindoline-6-carboxylic acid] here?
Answer: Its Ki is 149 ± 22 nM.

Question: And the IC50 [1, 9]?
Answer: Its IC50 is 1140 ± 168 nM.

Question: Which “Ki ± SE” value [1, 10] does the source give for `CN1CCN(CC(=O)N(C)c2ccc(N/C(=C3\C(=O)Nc4ccccc43)c3ccccc3)cc2)CC1` [Compound 16, (Z)—N-Methyl-2-(4-methylpiperazin-1-yl)-N-(4-(((2-oxoindolin-3-ylidene)(phenyl)methyl)amino)phenyl)acetamide] here?
Answer: The value was “subnanomolar”.

Question: What about the Ki [1, 8] of the same compound?
Answer: Its Ki is 0.47 nM.

Question: And the IC50 [1, 9]?
Answer: The IC50 was 3.6 ± 0.4 nM.

Question: And the Ki [1, 11]?
Answer: Its Ki is 0.47 ± 0.06 nM.

Question: And the Ki [2]?
Answer: Its Ki is 4.2 ± 0.3 nM.

Question: And the “difference in Ki compared to MELK” value [3]?
Answer: The value was 5-10 fold.

Question: What about the “difference in Ki compared to MELK” value [4] of the same compound?
Answer: The value was 5-10 fold.

Question: And the Ki [4]?
Answer: The Ki was 1.7 ± 0.17 nM.

Question: And the Ki [5]?
Answer: Its Ki is 10 ± 0.5 nM.

Question: What about the Ki [6] of the same compound?
Answer: Its Ki is 15 ± 1.8 nM.

Question: For `CCS(=O)(=O)Nc1ccc2c(c1)/C(=C(/Nc1ccc(CN3CCCCC3)cc1)c1ccccc1)C(=O)N2` [Hesperadin, reference compound], which IC50 [1, 12] is on record?
Answer: The IC50 was 225 ± 50 nM.

Question: Which results are given for `CN(C)CCCNC(=O)c1ccc2c(c1)NC(=O)/C2=C(\Nc1ccc(N(C)C(=O)CN2CCN(C)CC2)cc1)c1ccccc1` [Compound 22, (Z)—N-(3-(Dimethylamino)propyl)-3-(((4-(N-methyl-2-(4-methylpiperazin-1-yl)acetamido)phenyl)amino)(phenyl)methylene)-2-oxoindoline-6-carboxamide]?
Answer: Ki [1, 8]: 358 ± 71 nM; IC50 [1, 9]: 2700 ± 540 nM

Question: `O=C1Nc2ccc3scnc3c2/C1=C/c1cnc[nH]1` [Compound 527450, reference compound] was tested. Which IC50 [1, 12] did it give?
Answer: The IC50 was 720 ± 100 nM.

Question: `Cc1ccc([N+](=O)[O-])cc1S(=O)(=O)N(C)/N=C/c1cnc2ccc(Br)cn12` [PIK75, reference compound] was tested. Which IC50 [1, 12] did it give?
Answer: The IC50 was 400 ± 72 nM.

Question: For `c1cc(OCCN2CCCCC2)cc(-c2n[nH]c3ccc(-c4nc[nH]n4)cc23)c1` [CC401, reference compound], which IC50 [1, 12] is on record?
Answer: The IC50 was 340 ± 70 nM.

Question: Which IC50 [1, 12] does the source give for `N=C(N)NCCNS(=O)(=O)c1cccc2cnccc12` [HA-1004, reference compound] here?
Answer: Its IC50 is 440 ± 210 nM.

Question: `CN1CCN(CC(=O)N(C)c2ccc(N/C(=C3\C(=O)Nc4cc(C(=O)NCCCN)ccc43)c3ccccc3)cc2)CC1` [Compound 23, (Z)—N-(3-Aminopropyl)-3-(((4-(N-methyl-2-(4-methylpiperazin-1-yl)acetamido)phenyl)amino)(phenyl)methylene)-2-oxoindoline-6-carboxamide] was tested. Which IC50 [1, 9] did it give?
Answer: The IC50 was greater than 5000 nM.

Question: `NC(=O)Nc1cc(-c2cccc(F)c2)sc1C(=O)N[C@@H]1CCCNC1` [AZD776, reference compound] was tested. Which IC50 [1, 12] did it give?
Answer: Its IC50 is 900 ± 91 nM.

Question: How did the IC50 [1, 12] turn out when `CCN(CC)CCNC(=O)c1c(C)[nH]c(/C=C2\C(=O)Nc3ccc(Cl)cc32)c1C` [Compound 572660, reference compound] was run?
Answer: The IC50 was 760 ± 190 nM.

Question: What does the source list for `CC(=O)c1ccc2c(c1)/C(=C(/Nc1ccc(N(C)C(=O)CN3CCN(C)CC3)cc1)c1ccccc1)C(=O)N2` [Compound 18, (Z)—N-(4-(((5-Acetyl-2-oxoindolin-3-ylidene)(phenyl)methyl)amino)phenyl)-N-methyl-2-(4-methylpiperazin-1-yl)acetamide]?
Answer: Ki [1, 8]: 46 ± 4.6 nM; IC50 [1, 9]: 354 ± 35 nM

Question: Which “Ki ± SE” value [1, 10] does the source give for `CN1CCN(CC(=O)N(C)c2ccc(N/C(=C3\C(=O)Nc4ccc(C(=O)O)cc43)c3ccccc3)cc2)CC1` [Compound 21, (Z)-3-(((4-(N-Methyl-2-(4-methylpiperazin-1-yl)acetamido)phenyl)amino)(phenyl)methylene)-2-oxoindoline-5-carboxylic acid] here?
Answer: Its value is “subnanomolar”.

Question: What about the Ki [1, 8] of the same compound?
Answer: Its Ki is 0.68 ± 0.07 nM.

Question: What about the “φ = Ki Enzyme/Ki MELK” value ([1]; MELK) of the same compound?
Answer: The value was 1.00.

Question: What about the IC50 [1, 9] of the same compound?
Answer: Its IC50 is 5.2 ± 0.5 nM.

Question: And the Ki [1, 11]?
Answer: Its Ki is 0.68 ± 0.07 nM.

Question: What about the Ki [2] of the same compound?
Answer: The Ki was 4.9 ± 0.6 nM.

Question: What about the “φ = Ki Enzyme/Ki MELK” value [3] of the same compound?
Answer: Its value is 7.2 ± 0.2.

Question: What about the “φ = Ki Enzyme/Ki MELK” value [4] of the same compound?
Answer: Its value is 13 ± 0.2.

Question: And the Ki [4]?
Answer: The Ki was 8.6 ± 1.6 nM.

Question: And the “difference in relative Ki compared to MELK” value (from here on “difference in relative Ki”) [5]?
Answer: The value was greater than 100 fold.

Question: And the “φ = Ki Enzyme/Ki MELK” value [5]?
Answer: The value was 120 ± 0.1.

Question: What about the Ki [5] of the same compound?
Answer: The Ki was 81 ± 5.6 nM.

Question: What about the “difference in relative Ki” value [6] of the same compound?
Answer: Its value is greater than 100 fold.

Question: And the “φ = Ki Enzyme/Ki MELK” value [6]?
Answer: The value was 125 ± 0.2.

Question: What about the Ki [6] of the same compound?
Answer: The Ki was 85 ± 9.2 nM.

Question: And the “difference in relative Ki” value [7]?
Answer: Its value is greater than 100 fold.

Question: What about the “φ = Ki Enzyme/Ki MELK” value [7] of the same compound?
Answer: Its value is 28000 ± 0.2.

Question: What about the Ki ([7]; 100 μM ATP) of the same compound?
Answer: Its Ki is 19000 ± 3800 nM.

Question: How did the IC50 [1, 12] turn out when `CC(C)(C)c1nc2c3ccc(F)cc3c3c(=O)[nH]ccc3c2[nH]1` [Compound 420099, reference compound] was run?
Answer: Its IC50 is 330 ± 37 nM.

Question: `CCO/C(=C1\C(=O)N(C(C)=O)c2cc(C(=O)OC)ccc21)c1ccccc1` [Compound 6, Methyl (Z)-1-acetyl-3-(ethoxy(phenyl)methylene)-2-oxoindoline-6-carboxylate] was tested. Which Ki [1, 13] did it give?
Answer: Its Ki is greater than 5000 nM.

Question: Which Ki [1, 13] does the source give for `CCO/C(=C1\C(=O)N(C(C)=O)c2ccc(C(=O)OC)cc21)c1ccccc1` [Compound 8, Methyl (Z)-1-acetyl-3-(ethoxy(phenyl)methylene)-2-oxoindoline-5-carboxylate] here?
Answer: Its Ki is greater than 5000 nM.

Question: `CN1CCN(CC(=O)N(C)c2ccc(N)cc2)CC1` [Compound 14, N-(4-Aminophenyl)-N-methyl-2-(4-methylpiperazin-1-yl)acetamide] was tested. Which Ki [1, 13] did it give?
Answer: Its Ki is greater than 5000 nM.
